Measurements from patent US4307094A, “Triazolopyridazine derivatives” (Hoffmann-La Roche Inc., priority 1979, dated 1981).
pIC50: −log10 of the molar value.

Target: T1, angiotensin converting enzyme (Oryctolagus cuniculus, UniProt P12822)
T1 sequence (P12822 34-1310): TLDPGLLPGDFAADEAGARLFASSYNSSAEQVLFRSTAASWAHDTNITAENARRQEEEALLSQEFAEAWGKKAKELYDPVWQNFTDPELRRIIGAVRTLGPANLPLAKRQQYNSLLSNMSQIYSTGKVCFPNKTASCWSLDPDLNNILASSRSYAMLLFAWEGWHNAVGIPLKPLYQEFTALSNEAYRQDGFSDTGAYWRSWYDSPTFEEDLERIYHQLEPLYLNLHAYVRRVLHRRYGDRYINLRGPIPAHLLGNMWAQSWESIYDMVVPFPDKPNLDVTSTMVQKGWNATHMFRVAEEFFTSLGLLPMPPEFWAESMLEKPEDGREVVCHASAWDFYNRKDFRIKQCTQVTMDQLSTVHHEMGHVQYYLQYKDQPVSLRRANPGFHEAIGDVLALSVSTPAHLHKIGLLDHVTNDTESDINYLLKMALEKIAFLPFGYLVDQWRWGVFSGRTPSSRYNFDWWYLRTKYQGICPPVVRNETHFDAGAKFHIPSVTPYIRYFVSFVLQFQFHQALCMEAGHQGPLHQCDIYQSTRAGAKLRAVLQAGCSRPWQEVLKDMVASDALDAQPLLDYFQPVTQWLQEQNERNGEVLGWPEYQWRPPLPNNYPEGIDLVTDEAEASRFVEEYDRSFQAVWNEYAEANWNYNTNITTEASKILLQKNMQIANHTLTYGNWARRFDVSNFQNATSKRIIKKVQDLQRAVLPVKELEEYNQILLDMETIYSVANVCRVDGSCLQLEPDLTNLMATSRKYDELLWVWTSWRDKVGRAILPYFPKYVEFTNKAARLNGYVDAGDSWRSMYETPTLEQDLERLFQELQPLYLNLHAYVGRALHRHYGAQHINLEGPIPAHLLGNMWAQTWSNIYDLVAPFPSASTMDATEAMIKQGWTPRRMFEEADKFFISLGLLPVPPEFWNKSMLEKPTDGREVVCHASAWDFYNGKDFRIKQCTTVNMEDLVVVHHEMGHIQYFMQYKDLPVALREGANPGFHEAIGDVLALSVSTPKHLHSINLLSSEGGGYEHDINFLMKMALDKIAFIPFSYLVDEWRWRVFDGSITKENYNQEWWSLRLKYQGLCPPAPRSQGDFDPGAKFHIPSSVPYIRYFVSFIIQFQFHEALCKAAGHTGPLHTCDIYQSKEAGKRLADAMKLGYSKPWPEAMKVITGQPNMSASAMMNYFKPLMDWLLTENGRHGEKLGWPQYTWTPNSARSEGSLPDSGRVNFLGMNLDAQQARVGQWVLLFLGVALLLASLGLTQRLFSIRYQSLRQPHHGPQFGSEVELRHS
Assay: inhibition of angiotensin converting enzyme in vitro (cleavage of hippuryl-histidyl-leucine)
Type: biochemical
Details: substrate hippuryl-histidyl-leucine 2 mM, potassium phosphate buffer pH 8.3 (100 mM), NaCl 300 mM, 25 minutes, 37° C.
Description: The activity of the present triazolopyridazine derivatives in inhibiting angiotensin converting enzyme in vitro can be determined by the following test.
The method used is based on the method of Cushman and Cheung (Biochem. Pharmacol., 20, 1637-1648) incorporating the modifications introduced by Hayakari et al. (Anal. Biochem., 84, 361-369). The substrate (hippuryl-histidyl-leucine, 2 mM) is incubated with angiotensin converting enzyme in the presence or absence of various concentrations of test substance in potassium phosphate buffer (pH 8.3; 100 mM) containing sodium chloride (300 mM) for 25 minutes at 37° C. (total […] 500 μl). The reaction is terminated by the addition of 3 ml of potassium phosphate buffer (pH 8.3; 200 mM) at 0° C. 2,4,6-trichloro-s-triazine (3%) in 1.5 ml of dioxan is added, and the mixture is agitated until the yellow chromophore has developed fully. The samples are then centrifuged to remove any precipitate which has formed. The yellow chromophore formed by the reaction of the 2,4,6-trichloro-s-triazine with free hippuric acid is measured spectrophotometrically at 382 nm. IC50 values are defined as the concentration of test substance which reduces by 50% the cleavage of hippuryl-histidyl-leucine by angiotensin converting enzyme under the aforementioned conditions.

Structure (SMILES)	pIC50
O=C(O)C1C=CCn2c(=O)n(CCS)c(=O)n21 (stereo not shown) [Compound D, 2,3,5,8-tetrahydro-2-(2-mercaptoethyl)-1,3-dioxo-1H-1,2,4-triazolo[1,2-a]pyridazine-5-carboxylic acid]	6.32
NC(=O)CCn1c(=O)n2n(c1=O)C(C(=O)O)C=CC2 (stereo not shown) [Compound B, 2-(2-carbamoylethyl)-2,3,5,8-tetrahydro-1,3-dioxo-1H-1,2,4-triazolo[1,2-a]-pyridazine-5-carboxylic acid]	4.19
O=C(O)CCn1c(=O)n2n(c1=O)C(C(=O)O)C=CC2 (stereo not shown) [Compound A, 5-carboxy-2,3,5,8-tetrahydro-1,3-dioxo-1H-1,2,4-triazolo[1,2-a]pyridazine-2-propionic acid]	4.74
O=C(CCn1c(=O)n2n(c1=O)C(C(=O)O)C=CC2)NO (stereo not shown) [Compound C, 2-[2-(N-hydroxycarbamoyl)ethyl]-2,3,5,8-tetrahydro-1,3-dioxo-1H-1,2,4-triazolo[1,2-a]pyridazine-5-carboxylic acid]	5.48
